Assays:
[1] = molecular target: T1, Peroxisome proliferator-activated receptor gamma (Homo sapiens) (UniProt P37231); assay: Agonist activity at PPARgamma (unknown origin) transfected in HEK293 cells assessed as transcriptional activity at 10 uM relative to rosiglitazone; assay type: cell-based
T1 sequence (whole entry): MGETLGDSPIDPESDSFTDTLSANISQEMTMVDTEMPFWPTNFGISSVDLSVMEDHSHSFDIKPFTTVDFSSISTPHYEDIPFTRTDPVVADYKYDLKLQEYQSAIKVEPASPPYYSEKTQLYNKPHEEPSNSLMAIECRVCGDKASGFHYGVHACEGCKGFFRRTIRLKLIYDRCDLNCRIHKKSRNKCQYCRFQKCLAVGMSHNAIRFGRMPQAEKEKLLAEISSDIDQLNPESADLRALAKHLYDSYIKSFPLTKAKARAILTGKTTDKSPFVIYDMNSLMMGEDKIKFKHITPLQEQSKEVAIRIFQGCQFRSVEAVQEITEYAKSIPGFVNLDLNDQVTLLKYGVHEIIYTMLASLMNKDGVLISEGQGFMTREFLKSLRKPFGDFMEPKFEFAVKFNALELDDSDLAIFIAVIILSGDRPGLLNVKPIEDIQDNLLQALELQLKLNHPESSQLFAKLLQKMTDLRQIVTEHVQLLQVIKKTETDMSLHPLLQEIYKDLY

[2] = molecular target: T1, Peroxisome proliferator-activated receptor gamma (Homo sapiens); assay: Binding affinity to PPARgamma (unknown origin) at 10 uM by Polarscreen competitor assay relative to rosiglitazone
[3] = test system: 3T3-L1; assay: Induction of insulin-stimulated [14C]deoxy-glucose uptake in mouse 3T3L1 cells pretreated at 10 uM for 24 hrs before insulin stimulation by scintillation counting relative to vehicle-treated control; assay type: functional
[4] = test system: 3T3-L1; assay: Induction of adipogenesis in mouse 3T3L1 cells at 20 ug/ml by microscopic analysis relative to rosiglitazone; assay type: functional

Structure (SMILES) | Emax [1] [%] | Imax [2] [%] | fold change (FC) [3] | Emax at 20 µg/mL [4] [%]
COc1ccc(S(=O)(=O)Nc2cnc(OC3CCN(c4ccccc4)CC3)c(Cl)c2)cc1 | 15 | 47 | 1.12 | 30
O=S(=O)(Nc1cnc(OC2CCN(c3ccccc3)CC2)c(Cl)c1)c1ccc(C(F)(F)F)cc1 | 14 | 98 | 0.99 | 20
COc1ccc(S(=O)(=O)Nc2cnc(OC3CCN(c4ccccc4)CC3)c(Cl)c2)c(OC)c1 | 17 | 51 | 1.44 | 20
O=S(=O)(Nc1cnc(OC2CCN(c3ccccc3)CC2)c(Cl)c1)c1ccc(F)c(Cl)c1 | 10 | 79 | 0.98 | 20
CN(CCOc1ccc(NS(=O)(=O)c2ccc(Cl)c(Cl)c2)cn1)c1nc2ccccc2o1 | 14 | 78 | 1.02 | 20
CN(CCOc1ncc(NS(=O)(=O)c2ccc(Cl)cc2Cl)cc1Cl)c1nc2ccccc2o1 | 16 | 82 | 1.12 | 22

Now from value to compound, other results behind:

Emax [1] [%] | Imax [2] [%] | Structure (SMILES) | fold change (FC) [3] | Emax at 20 µg/mL [4] [%]
14 | 79 | O=S(=O)(Nc1cnc(OC2CCN(c3ccccc3)CC2)c(Cl)c1)c1ccc(Cl)cc1Cl | 1.26 | 18
12 | 78 | O=S(=O)(Nc1cnc(OC2CCN(c3ccccc3)CC2)c(Cl)c1)c1ccc(F)cc1F | 1.12 | 21
12 | 72 | Cc1ccccc1S(=O)(=O)Nc1cnc(OC2CCN(c3ccccc3)CC2)c(Cl)c1 | 0.97 | 22
11 | 37 | N#Cc1ccc(S(=O)(=O)Nc2cnc(OC3CCN(c4ccccc4)CC3)c(Cl)c2)cc1 | 1.07 | 20
13 | 76 | O=S(=O)(Nc1cnc(OC2CCN(c3ccccc3)CC2)c(Cl)c1)c1ccc(-c2ccccn2)s1 | 0.93 | 15

Source: ChEMBL document CHEMBL2424534, “Design and synthesis of non-TZD peroxisome proliferator-activated receptor (PPAR) modulator” (2013)
